Where two headings read alike, the source gives them in different places.
Legend:
DENV-1 = experiment: Viral yield assay against DENV-1 in Vero cells; assay type: cell-based; details: Dengue virus, DENV1, viral yield assay
Outline: (§1)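 Yield reduction, Vero; MOI 0.1; compound vs DMSO; 37° C; harvest 48 h p.i.; titer on Vero; EC50 fitted. Other serotypes run the same way.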

DENV-3 = experiment: Viral yield assay against DENV-3 in Vero cells; assay type: cell-based; details: Dengue virus, DENV3, viral yield assay
Outline: as §1

DENV-4 = experiment: Viral yield assay against DENV-4 in Vero cells; assay type: cell-based; details: Dengue virus, DENV4, viral yield assay
Outline: as §1

[1] = test system: Dengue-2 (Strain New Guinea C); experiment: Viral yield assay against Dengue-2 in Vero cells; assay type: cell-based, Dengue virus; details: Dengue virus, read-out: Activity (EC50 in μM) DENV-2
Outline: as §1

[2] = DENV2, viral yield assay, Vero cells, MOI 0.1, 48 hours post infection

Row | Compound | EC50 (DENV-1) [µM] | EC50 (DENV-3) [µM] | EC50 (DENV-4) [µM] | EC50 [1, 2] [µM] | EC50 ([1]; DENV2, Vero, 48 h) [µM]
1 | Cc1cccc2cc3c(N)c(C(=O)Nc4cccc(C(F)(F)F)c4)sc3nc12 [Compound 364, 3-amino-8-methyl-N-(3-(trifluoromethyl)phenyl)thieno [2,3-b]quinoline-2-carboxamide] | < 5 | < 5 | < 5 | < 5 | –
2 | Nc1c(C(=O)Nc2ccc3ccccc3c2)sc2nc3c(cc12)CCCCC3 [Compound 365, 3-amino-N-(naphthalen-2-yl)-6,7,8,9-tetrahydro-5H-cyclohexpta[b]thieno[3,2-e] pyridine-2-carboxamide] | 5 to 25 | 5 to 25 | > 25 | < 5 | –
3 | Nc1c(C(=O)Nc2cccc(C(F)(F)F)c2)sc2nc3c(cc12)CCCCC3 [Compound 368, 3-amino-N-(3-(trifluoromethyl)phenyl)-6,7,8,9-tetrahydro-5H-cyclohepta[b]thieno [3,2-e]pyridine-2-carboxamide] | < 5 | < 5 | < 5 | < 5 | –
4 | Nc1c(C(=O)Nc2ccc(OC(F)(F)F)cc2)sc2nc3c(cc12)CCCCC3 [Compound 369, 3-amino-N-(4-(trifluroomethoxy)phenyl)-6,7,8,9-tetrahydro-5H-cyclohepta[b]thieno [3,2-e]pyridine-2-carboxamide] | 5 to 25 | < 5 | < 5 | < 5 | –
5 | Nc1c(C(=O)N(c2ccccc2)c2ccccc2)sc2nc3c(cc12)CCCCC3 [Compound 373, 3-amino-N,N-diphenyl-6,7,8,9-tetrahydro-5H-cyclohepta[b]thieno[3,2-e]pyridine-2-carboxamide] | < 5 | < 5 | < 5 | < 5 | –
6 | Nc1c(C(=O)Nc2ccccc2)sc2nc(-c3cccs3)ccc12 [Compound 411, 3-amino-N-phenyl-6-(2-thienyl)thieno [2,3-b]pyridin-2-carboxamide] | < 5 | < 5 | < 5 | – | < 5
7 | Nc1c(C(=O)Nc2ccc(Cl)c(Cl)c2)sc2nc(-c3cccs3)ccc12 [Compound 413, 3-amino-N-(3,4-dichlorophenyl)-6-(2-thienyl)thieno[2,3-b]pyridine-2-carboxamide] | < 5 | < 5 | < 5 | < 5 | –
8 | Cc1ccc(NC(=O)c2sc3nc(-c4cccs4)ccc3c2N)cc1C [Compound 414, 3-amino-N-(3,4-dimethylphenyl)-6-(2-thienyl)thieno[2,3-b]pyridine-2-carboxamide] | < 5 | < 5 | < 5 | < 5 | –
9 | Nc1c(C(=O)Nc2ccc3c(c2)OCCO3)sc2nc(-c3cccs3)ccc12 [Compound 415, 3-amino-N-(2,3-dihydro-1,4-benzodioxin-6-yl)-6-(2-thienyl)thieno[2,3-b] pyridine-2-carboxamide] | < 5 | < 5 | < 5 | < 5 | –
10 | Nc1c(C(=O)Nc2ccc(OC(F)(F)F)cc2)sc2nc(-c3ccncc3)ccc12 [Compound 417, 3-amino-6-(4-pyridyl)-N-[4-(trifluoromethoxy)phenyl]thieno[2,3-b] pyridine-2-carboxamide] | < 5 | < 5 | < 5 | < 5 | –
11 | Nc1c(C(=O)Nc2ccc(Br)cc2)sc2nc(-c3ccc(Cl)cc3)ccc12 [Compound 425] | < 5 | < 5 | < 5 | < 5 | –
12 | COc1ccc(NC(=O)c2sc3nc(-c4cccs4)ccc3c2N)cc1 [Compound 427, 3-amino-N-(4-methoxyphenyl)-6-(2-thienyl)thieno[2,3-b]pyridine-2-carboxamide] | < 5 | < 5 | < 5 | < 5 | –
13 | Nc1c(C(=O)Nc2ccc(OC(F)(F)F)cc2)sc2nc(-c3cccs3)ccc12 [Compound 428, 3-amino-6-(2-thienyl)-N-[4-(trifluoromethoxy)phenyl]thieno[2,3-b] pyridine-2-carboxamide] | < 5 | < 5 | < 5 | < 5 | –
14 | CC(=O)c1ccc(NC(=O)c2sc3nc(-c4cccs4)ccc3c2N)cc1 [Compound 429, N-(4-acetylphenyl)-3-amino-6-(2-thienyl)thieno[2,3-b]pyridine-2-carboxamide] | < 5 | < 5 | < 5 | < 5 | –
15 | COc1cccc(-c2ccc3c(N)c(C(=O)Nc4ccc(OC(F)(F)F)cc4)sc3n2)c1 [Compound 430, 3-amino-6-(3-methoxyphenyl)-N-[4-(trifluoromethoxy)phenyl]thieno[2,3-b] pyridine-2-carboxamide] | < 5 | < 5 | < 5 | < 5 | –
16 | Nc1c(C(=O)Nc2cc(Cl)cc(Cl)c2)sc2nc(-c3cccs3)ccc12 [Compound 431, 3-amino-N-(3,5-dichloropehnyl)-6-(2-thienyl)thieno[2,3-b]pyridine-2-carboxamide] | < 5 | < 5 | < 5 | < 5 | –
17 | Nc1c(C(=O)Nc2cc(Cl)ccc2Cl)sc2nc(-c3cccs3)ccc12 [Compound 433, 3-amino-N-(2,5-dichlorophenyl)-6-(2-thienyl)thieno[2,3-b]pyridine-2-carboxamide] | < 5 | < 5 | < 5 | < 5 | –
18 | Nc1c(C(=O)Nc2cccc(Cl)c2Cl)sc2nc(-c3cccs3)ccc12 [Compound 434, 3-amino-N-(2,3-dichlorophenyl)-6-(2-thienyl)thieno[2,3-b]pyridine-2-carboxamide] | < 5 | < 5 | < 5 | < 5 | –
19 | Nc1c(C(=O)Nc2ccccc2C(F)(F)F)sc2nc(-c3cccs3)ccc12 [Compound 437, 3-amino-6-(2-thienyl)-N-[2-(trilfuoromethyl)phenyl]thieno[2,3-b] pyridine-2-carboxamide] | < 5 | < 5 | < 5 | < 5 | –
20 | Cc1ccc(C)c(NC(=O)c2sc3nc(-c4cccs4)ccc3c2N)c1 [Compound 438, 3-amino-N-(2,5-dimethylphenyl)-6-(2-thienyl)thieno[2,3-b]pyridine-2-carboxamide] | < 5 | < 5 | < 5 | < 5 | –
21 | Nc1c(C(=O)Nc2ccc(Br)cc2)sc2nc(-c3ccco3)ccc12 [Compound 439, 3-amino-N-(4-bromophenyl)-6-(2-furyl)thieno[2,3-b]pyridine-2-carboxamide] | < 5 | < 5 | < 5 | – | < 5
22 | COc1ccc(OC)c(NC(=O)c2sc3nc(-c4cccs4)ccc3c2N)c1 [Compound 441, 3-amino-N-(2,5-dimethoxyphenyl)-6-(2-thienyl)thieno[2,3-b]pyridine-2-carboxamide] | < 5 | < 5 | < 5 | – | < 5
23 | Nc1c(C(=O)Nc2cccc(Cl)c2)sc2nc(-c3cccs3)ccc12 [Compound 445, 3-amino-N-(3-chlorophenyl)-6-(2-thienyl)thieno[2,3-b]pyridine-2-carboxamide] | < 5 | < 5 | < 5 | < 5 | –
24 | COc1cccc(-c2ccc3c(N)c(C(=O)Nc4ccc(Br)cc4)sc3n2)c1 [Compound 446, 3-amino-N-(4-bromophenyl)-6-(3-methoxyphenyl)thieno[2,3-b]pyridine-2-carboxamide] | < 5 | < 5 | < 5 | < 5 | –
25 | COc1cccc(-c2ccc3c(N)c(C(=O)Nc4cccc(Br)c4)sc3n2)c1 [Compound 447, 3-amino-N-(3-bromophenyl)-6-(3-methoxyphenyl)thieno[2,3-b]pyridine-2-carboxamide] | < 5 | < 5 | < 5 | < 5 | –
26 | COc1cccc(-c2ccc3c(N)c(C(=O)Nc4ccc(C(F)(F)F)cc4)sc3n2)c1 [Compound 448, 3-amino-6-(3-methoxyphenyl)-N-[4-(trifluoromethyl)phenyl]thieno[2,3-b] pyridine-2-carboxamide] | < 5 | < 5 | < 5 | < 5 | –
27 | COc1cccc(-c2ccc3c(N)c(C(=O)Nc4ccccc4C(F)(F)F)sc3n2)c1 [Compound 449, 3-amino-6-(3-methoxyphenyl)-N-[2-(trifluoromethyl)phenyl]thieno[2,3-b] pyridine-2-carboxamide] | < 5 | < 5 | < 5 | < 5 | –
28 | COc1cccc(-c2ccc3c(N)c(C(=O)Nc4cccc(C(F)(F)F)c4)sc3n2)c1 [Compound 450, 3-amino-6-(3-methoxyphenyl)-N-[3-(trifluoromethyl)phenyl]thieno[2,3-b] pyridine-2-carboxamide] | < 5 | < 5 | < 5 | < 5 | –
29 | Nc1c(C(=O)Nc2ccc(C(F)(F)F)cc2)sc2nc(-c3ccc4c(c3)OCO4)ccc12 [Compound 452, 3-amino-6-(1,3-benzodioxol-5-yl)-N-[4-(trifluoromethyl)phenyl]thieno[2,3-b] pyridine-2-carboxamide] | < 5 | < 5 | < 5 | < 5 | –
30 | Nc1c(C(=O)Nc2cccc(C(F)(F)F)c2)sc2nc(-c3ccc4c(c3)OCO4)ccc12 [Compound 453, 3-amino-6-(1,3-benzodioxol-5-yl)-N-[3-(trifluoromethyl)phenyl]thieno[2,3-b] pyridine-2-carboxamide] | < 5 | < 5 | < 5 | < 5 | –

— patent publication US20170121344A1 (Siga Technologies, Inc., priority 2009, published 2017)
